Assays:
YUMMER1.7 melanomas = test: YUMMER1.7 melanoma in mice, beta-blocker alone or with ICB; type: in vivo; settings: for cytokine production by CD8+ T cells: combination with ICB, tumor CD8+ T cells stimulated with PMA/ionomycin
PDAC tumors = test: Orthotopic PDAC (6419c5) in mice, beta-blocker alone or with ICB; type: in vivo; settings: for tumor growth: agent alone; for tumor growth (abdominal ultrasound volume and tumor mass): in combination with ICB (anti-PD-1 + anti-CTLA-4)
ADRB1 = ADRB1 (Mus musculus, UniProt P34971); parameters: dose or concentration left out as unconfirmed; settings: Adrb1 OE P14+ cells vs empty vector; for CD8+ T cell cytokine production: gp33 stimulation; for CD8+ T cell proliferation: up to 6 days of culture
LCMV-clone 13 = type: in vivo, mice
ADRB1 vs. ADRB2 = settings: relative to β1; cited from earlier work
[1] = test system: CD8+ T cells in PDAC tumors; test: scRNA Seq of tumor infiltrating T cells from PDAC tumors; type: in vivo, mice
Method: For scRNA Seq of PDAC tumors 4 tumors each per treatment condition were pooled and stained for sorting. The following cell populations were sorted into RPMI supplemented with 20% fetal bovine serum: Thy1.2^+ CD45.2^+ (T cells), Thy1.2^− CD45.2^+ (Non T cell leukocytes), YFP^+ CD45.2^− (tumor cells). Sorted cells were spun down at 420 rcf at 4° C. for 4 minutes, resuspended in PBS+2% fetal bovine serum and mixed at 8 k Thy1.2^+ CD45.2^+, 10 k Thy1.2^− CD45.2^+, 2 k YFP^+ CD45.2^− for a total of 20 k cells per sample.
Samples were then loaded onto Chromium Chip G (10× Genomics) and partitioned into Gel Bead-in-Emulsions using a chromium controller (10× Genomics). Single cell RNA libraries were generated following the manufacturer's instructions of the Chromium Next GEM Single Cell 3′ Reagent Kit v3.1 (10× Genomics) followed by sequencing on a NovaSeq6000 at the NGS Core of the Salk Institute. Cellranger count was used to align reads to the mm10 genome and YFP. The resulting counts matrix was then processed using the R package scran^54 and outlying cells identified with quickPerCellQC (stats, percent_subsets=“subsets_Mito_percent”) were discarded. Data was log normalized using quickCluster, computeSumFactors and logNormCounts. The top 10% most variable genes were calculated using modelGeneVarByPoisson and getTopHVGs and then used in the PCA calculation using denoisePCA. The top 50 principal components were used to calculate a UMAP dimensional reduction using the runUMAP function (metric=“cosine”, min_dist=0.3 and n_neighbors=30). Leiden clustering was performed with igraph's cluster_leiden (with resolution=0.05) after running buildSNNGraph (with k=25). Cell types were annotated using SingleR^55 and the ImmGenData labels as a reference using default parameters. For further analysis the dataset was filtered on T cells according to the SingleR labels and variable genes, PCA and UMAP were calculated with the same settings described above. Clustering of T cells was performed using cluster_leiden with the resolution set to 1.8. For visualization, data imputation was performed using MAGIC^56 using the exact solver. To assign biological relevance to the T cell clusters, a heatmap of the median log normalized expression (using aggregateAcrossCells) of selected markers was generated and visualized using ComplexHeatmap^57. Differential genes for the clusters were identified by performing pairwise comparison of one cluster against all other clusters using the findMarkers function (test.type=“binom”, lfc=0.1, direction=“up”). Gene signatures for T cell exhaustion and TRn cells were obtained from Wherry et al and Milner et al respectively^45,58 in addition to the MSigDB hallmark gene sets. Gene signature scores were calculated using AUCell^59 (aucMaxRank set to 5%). […]

[2] = gp33+ CD8+ T cells, d37 p.i., vs untreated

ADRB1, sequence (P34971 whole entry): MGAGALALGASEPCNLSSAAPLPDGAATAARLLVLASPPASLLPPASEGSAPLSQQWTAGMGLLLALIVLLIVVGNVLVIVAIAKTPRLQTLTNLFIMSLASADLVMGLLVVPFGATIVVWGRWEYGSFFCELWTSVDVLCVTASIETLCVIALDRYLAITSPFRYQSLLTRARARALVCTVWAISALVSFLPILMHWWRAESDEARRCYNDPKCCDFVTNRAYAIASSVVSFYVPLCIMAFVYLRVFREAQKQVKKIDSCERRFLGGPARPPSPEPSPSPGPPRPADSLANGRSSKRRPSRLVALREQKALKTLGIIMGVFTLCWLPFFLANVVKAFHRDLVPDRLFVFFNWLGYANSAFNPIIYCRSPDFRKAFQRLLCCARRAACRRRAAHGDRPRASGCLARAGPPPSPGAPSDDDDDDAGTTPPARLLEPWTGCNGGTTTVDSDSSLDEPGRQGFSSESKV

Cn1cc(C(F)(F)F)nc1-c1ccc(OCC(O)CNCCOc2ccc(O)c(C(N)=O)c2)cc1 (stereo not shown) [CGP 20712A]
cytokine production by CD8+ T cells (YUMMER1.7 melanomas): significantly increased

Cc1ccc(OCC(O)C(C)NC(C)C)c2c1CCC2 (stereo not shown) [ICI 11855135]
tumor growth (PDAC tumors): failed to suppress tumor growth | tumor growth (abdominal ultrasound volume and tumor mass) (PDAC tumors): failed to suppress tumor growth

CNCC(O)c1ccc(O)c(O)c1 (stereo not shown) [adrenaline]
CD8+ T cell cytokine production (ADRB1): impairs | CD8+ T cell proliferation (ADRB1): impairs

CC(C)NCC(O)COc1ccc(CC(N)=O)cc1 (stereo not shown) [atenolol]
frequencies of IFNγ-, TNF- and GZMB-producing virus-specific CD8+ T cells (LCMV-clone 13; after gp33 stimulation for 6 h, d37 p.i., vs untreated): higher frequencies | expansion of virus-specific CD8+ T cells that displayed features of TEXprog, at the expense of TEXeff and TEXterm (LCMV-clone 13; atenolol 0.5 mg/ml in drinking water throughout infection vs untreated, spleen, d37 p.i.): greater expansion | amounts of CREM in virus-specific CD8+ T cells (LCMV-clone 13; [2]): lowered | amounts of cAMP in virus-specific CD8+ T cells (LCMV-clone 13; [2]): lowered | viral titers (LCMV-clone 13; serum of LCMV-clone 13-infected mice, vs untreated): lower viral titers | tumor cell proliferation (tumor expression of Ki67 relative to IgG, IHC) (YUMMER1.7 melanomas; beta-blocker alone vs IgG, YUMMER tumors): does not directly affect tumor cell proliferation | effects on differentiation of exhausted T cells (YUMMER1.7 melanomas; combination with ICB (anti-PD-1 + anti-CTLA-4)): did not extend beyond those of the checkpoint therapy alone | tumor size (normalized tumor mass relative to IgG control) (YUMMER1.7 melanomas; combination with ICB (anti-PD-1 + anti-CTLA-4), compared to untreated or beta-blocker alone): significantly smaller | cytokine production by CD8+ T cells (YUMMER1.7 melanomas): dramatically increased | tumor growth (PDAC tumors): failed to suppress tumor growth | tumor growth (abdominal ultrasound volume and tumor mass) (PDAC tumors): failed to suppress tumor growth | block of the β2-adrenergic receptor (ADRB1 vs. ADRB2): to a lower degree

NC[C@H](O)c1ccc(O)c(O)c1 [noradrenaline]
CD8+ T cell cytokine production (ADRB1): impairs | CD8+ T cell proliferation (ADRB1): impairs

CC(C)NCC(O)COc1cccc2ccccc12 (stereo not shown) [propranolol]
tumor cell proliferation (tumor expression of Ki67 relative to IgG, IHC) (PDAC tumors; beta-blocker alone vs IgG, PDAC tumors): does not directly affect tumor cell proliferation | CD8+ T cells in the tumors (PDAC tumors; combination with ICB): increase | production of IFNγ and GZMB (PDAC tumors; combination with ICB, after PMA/ionomycin stimulation): increased production | expression of the activation/exhaustion markers PD-1 and TIM3 (PDAC tumors; combination with ICB, tumor CD8+ T cells): higher expression | tumor growth (abdominal ultrasound volume and tumor mass) (PDAC tumors): significantly reduced | T cell clusters 1 and 5 (TRM-like and exhausted CD8+ T cells) ([1]; combination treatment with ICB): enriched | cytokine and chemokine production (Gzma, Tgfb1, Gzmb, Xcl1, Ccl3, Ccl4, Ifng, Prf1) of CD8+ T cells ([1]; combination treatment with ICB): enhanced | signatures for T cell response, exhaustion and TRM ([1]; combination treatment with ICB): enriched | upregulated genes in CD8+ T cells compared to the isotype control ([1]; propranolol and ICB therapy): 272 genes

Reference: patent publication US20260207668A1, “MANIPULATION OF ADRENERGIC RECEPTORS TO INFLUENCE IMMUNE CELL DIFFERENTIATION AND FUNCTION” (Salk Institute for Biological Studies, priority 2022, published 2026)
